The results in this text go back to PMC5108032, “Discovery of a Quinoline-4-carboxamide Derivative with a Novel Mechanism of Action, Multistage Antimalarial Activity, and Potent in Vivo Efficacy” (Journal of Medicinal Chemistry, 2016).

Series [1] concerns Pf (3D7). The series is described as follows: Ligand efficiency metrics (LE, LLE, LELP), selectivity and fold changes. The following applies: for drop in potency: Pf (3D7), relative to the comparator compound of the sentence. Set-up: species or system Plasmodium falciparum.
The test system of series [2] is MRC-5 cell line. Description: Mammalian cell growth inhibition counter-screen (resazurin). In kind it is cell-based, human. As to conditions: Homo sapiens, MRC5; supplementary csv; read-out: Hs MRC-5 EC50. On the procedure: (§1) Plasmodium falciparum screening
(§2) Assays against P. falciparum were conducted as previously described.1 Cultures of the widely-used malaria reference strain of chloroquine-sensitive Plasmodium falciparum strain 3D7 were maintained in a 5% suspension of human red blood cells (obtained from East of Scotland Blood Transfusion Service, Ninewells Hospital, Dundee) cultured in RPMI 1640 medium (pH 7.3) supplemented with 0.5% Albumax II (Gibco Life Technologies, San Diego, CA), 12 mM sodium bicarbonate, 0.2 mM hypoxanthine and 20 mg/L gentamicin at 37°C, in a humidified atmosphere of 1% O 2, 3% CO2 with a balance of nitrogen. Growth inhibition was quantified using a fluorescence assay utilising the binding of SYBR green to double stranded DNA, which emits a fluorescent signal at 528 nm after excitation at 485nm.2 Mefloquine (potency range 30-60 nM) was used as a drug control to monitor the quality of the assay (Z’ = 0.6 to 0.8, Signal to background >3, where Z’ is a measure of the discrimination between the positive and negative controls on a screen plate). A 96-well [3H]-Hypoxanthine incorporation assay was also developed as a secondary assay in order to validate compounds from the initial screen in an orthogonal platform.3 Compound bioactivity from both assays was expressed as […]
(§3) P. falciparum (panel of resistant strains) in vitro assay. (Swiss TPH)
(§4) All Plasmodium strains were cultured according to Trager and Jensen and are described at www.beiresources.org (resistant strains: K1, W2, 7G8, TM90C2A, D6 and V1/S, sensitive strain:
(§5) NF54). EC50 values were determined in vitro by measuring incorporation of the nucleic acid precursor […]
(§6) Mammalian Cell Growth Inhibition assay
(§7) A counter-screen against normal diploid human fibroblasts (MRC-5 cell line) was carried out to exclude non-selective, and toxic compounds. The assay was essentially carried out as described previously.4 Cells were plated and incubated overnight to allow them to adhere as monolayers. A working stock of each test compound was transferred to an intermediate 384-well plate and pre-diluted with minimum essential media (MEM). The pre-diluted stocks were then transferred onto the cell monolayers, and the plates were incubated for 68 h. Resazurin, to a final concentration of 50 μM, was added to each well, after which plates were incubated for a further 3 h and measured for fluorescence (λex=528 nm, λem=590 nm)
(§8) In vitro Cell Assay Data Analysis.
(§9) All data was processed using IDBS ActivityBase® raw data was converted into per cent inhibition through linear regression by setting the high inhibition control as 100% and the no inhibition control as 0%. Quality control criteria for passing plates were as follows: Z’> 0.5, S:B> 3, %CV(no inhibition < 15 . The formula used to calculate Z’ is 1 3× (St D e v _ hi gh + St D e v _ low) . […]
(§10) All EC50 Curve fitting was undertaken using XLFit version 4.2 using Model 205 with the following 4 parametric equation: y = A + B A A + ($-&) ,where A=% inhibition at bottom, B=% […]
(§11) inhibition at top, C= EC50, D= slope, x= inhibitor concentration and y= % inhibition. […]
(§12) reach 100% of inhibition, B was fixed to 100 only when at least 50% of inhibition was reached.
(§13) Plasmodium falciparum late stage (IV-V) gametocyte high content imaging assay Plasmodium falciparum NF54-pfs16-LUC-GFP stage IV-V Gametocytes were produced as described previously.5 Compounds were solubilized in DMSO and serially diluted in three concentrations per log standard curves in DM SO. One µl of compound was subsequently diluted in 25µl of water (4% DMSO) and 5µl transferred into the base of 384 well PerkinElmer CellCarrier plates. Forty-five µl of stage IV-V gametocytes (10%P in 0.1%H) were added to the imaging plates which were in turn sealed with a gas permeable membrane and incubated at 37°C, 5% CO 2, 5% O2, 90% N2 and 60% humidity […]
(§14) Post incubation, 5µl of MitoTracker® Red CM -H2Xros (MTR) solution (0.66ug/ml) was added to all wells and the plates incubated for a further 16hours. […]

Experiment in series [3]: as above
In kind it is cell-based, human. The following applies: human, MRC-5 cells (normal diploid human fibroblasts). On the procedure: as §1, §2, §3, §4, §5, §6, §7, §8, §9, §10, §11, §12, §13, §14

A short description of series [4]: Intrinsic clearance (Cli) in mouse liver microsomes. In kind it is in vitro ADME.
Excerpt: as §11, §12, §13
Post incubation, 5µl of MitoTracker® Red CM -H2Xros (MTR) solution (0.66ug/ml) was added to all wells and the plates incubated for a further 16hours. The assay plates were then imaged and the number of viable gametocytes determined for test compounds plus 0.4%DMSO and 5µM Puromycin.
(0.4%DMSO) control values. Percent inhibition was plotted against log compound concentration using a 4 parameter log dose, non-linear regression analysis, with sigmoidal dose response (variable slope) curve fit using Prizm 4.0. IC50 values were obtained from this curve fit. The compound testing was performed in duplicate point within two separate experiments.
Plasmodium berghei ookinete development assay
Assay was performed as previously reported.6 Briefly blood containing P. berghei CTRPp-GFP gametocytes was rapidly harvested from infected mice and introduced to test compounds pre-diluted in ookinete medium (to induce gamete formation and support ookinete development) in 96-well plates. Plates were incubated in the dark at 21°C for 22 hr before GFP fluorescence intensity measured in a plate reader. % inhibition of ookinete formation was calculated with reference to the fluorescence intensity values of a positive control (20 µM cycloheximide) and a solvent-only negative control (DMSO). All assays were performed in triplicate independent experiments and EC50 values calculated in Graphpad Prism.
The aqueous solubility of the test compounds was measured using laser nephelometry, as described previously.7 Compounds were subject to serial dilution from 10 mg/mL to 0.5 mg/mL in DMSO. An aliquot was then mixed with MilliQ water to obtain an aqueous dilution plate with a final concentration range of 100 – 5 μg/mL, with a final DMSO concentration of 1.0%. Triplicate aliquots were transferred to a flat bottomed polystyrene plate which was immediately read on the NEPHELOstar (BMG Lab Technologies). The amount of laser scatter caused by insoluble particulates (relative nephelometry units, RNU) was plotted against compound concentration using a segmental regression fit, with the point of inflection being quoted as the compounds aqueous solubility (μg/mL; […]
Intrinsic Clearance (Cli) experiments
The procedure was carried out as reported previously.7 Test compound (0.5 µM) was incubated with female CD1 mouse, male sprague-dawley rat or pooled human mixed gender liver microsomes (Xenotech LLC TM; 0.5 mg/mL 50 mM potassium phosphate buffer, pH 7.4) and the reaction initiated […]
by the addition of excess NADPH (8 mg/mL 50 mM potassium phosphate buffer, pH 7.4).
Immediately, at time zero, then at 3, 6, 9, 15 and 30 min an aliquot (50 μL) of the incubation mixture was removed and mixed with acetonitrile (100 μL) to stop the reaction. Internal standard was added to all samples, the samples centrifuged to sediment precipitated protein and the plates then sealed prior to UPLC-MS/MS analysis using a Quattro Premier XE (Waters Corporation, USA).
XLfit (IDBS, UK) was used to calculate the exponential decay and consequently the rate constant (k) from the ratio of peak area of test compound to internal standard at each timepoint. The rate of […]
Background: Liver microsomes are vesicles of endoplasmic reticulum, rich in cytochrome P450 enzymes.

Series [5] concerns Plasmodium falciparum strain 3D7. The series is described as follows: Plasmodium falciparum screening, SYBR green growth inhibition. It counts as cell-based. Here is the method:
as §1, §2, §3, §4, §5, §6, §7, §8, §9, §10, §11, §12, §13, §14

In series [6] the test system is P. berghei ANKA strain. Description: In vivo antimalarial efficacy in the P. berghei mouse model (Peter's test). Further details: species or system Plasmodium berghei in female NMRI mice. As to conditions: 4 × 10 mg/kg oral, once daily; mice cured / mice in group. On the procedure:
Compound 41 was dosed as a bolus solution intravenously at 1 mg free base/kg (dose volume: 5 mL/kg; dose vehicle: 5% DMSO;saline) or by gavage orally as solution at 3 mg free base/kg (dose volume: 10 mL/kg; Dose vehicle: 0.5% w/v hydroxypropylmethylcellulose with 0.4% v/v Tween 80 and 0.5% v/v benzyl alcohol) to male Sprague Dawley rats (n=3/dose route). Blood samples were taken from each rat at 5, 15, 30 min, 1, 2, 4, 6, 8, 24 and 30 h post-dose, mixed with two volumes of distilled water and stored frozen until UPLC/MS/MS analysis.
Pharmacokinetic parameters were derived from the blood concentration time curve for each compound using PKsolutions software v 2.0 (Summit Research Services, USA).
In vivo antimalarial efficacy studies in P. berghei. (Swiss TPH)
In vivo efficacy was conducted as previously described10 with the modification that female NMRI mice (n = 3) were infected with a GFP-transfected P. berghei ANKA strain (donated by A. P. Waters and C. J. Janse, Leiden University, The Netherlands), and parasitaemia determined (96 h after infection) using standard flow cytometry techniques. Compounds 1, 25, 27, 30 and 49 were prepared in 10% DM SO, 40% PEG 400 and 50% water prior to administration orally, once daily for 4 days.
Compounds 40, 41, 43 and 44 were prepared in a non-solubilizing, standard suspension vehicle called HPMC (0.5% [wt/vol] hydroxypropylmethylcellulose, 0.5% [vol/vol] benzyl alcohol, 0.4% [vol/vol] Tween 80, and 0.9% [wt/vol] sodium chloride in water) prior to administration orally, once daily for 4 days. Blood samples were collected on day 4 (96 h after infection) in two volumes water. Animals […]
and then hourly up to 4 h after dosing each day. The animals were selected randomly for each group

Setting [7] is: 3D7, supplementary csv, read-out: Pf (3D7) EC50.

Like-named read-outs stand apart in the source and are kept apart here.

As to `Cc1ccc(-c2cc(C(=O)Nc3cccnc3)c3cc(Br)ccc3n2)cc1` [Compound 1], the “LLE (ligand-lipophilicity efficiency)” value in series [1] is 2.6.

For `Cc1ccc(-c2cc(C(=O)NCCCN(C)C)c3cc(Cl)ccc3n2)cc1` [Compound 14, 6-Chloro-N-(3-(dimethylamino)propyl)-2-(p-tolyl)quinoline-4-carboxamide], the EC50 in series [2] came to 5.55 µM.

For the compound `Cc1ccc(-c2cc(C(=O)NCCN3CCCCC3)c3cc(Cl)ccc3n2)cc1` [Compound 17], the EC50 in series [2] is 7.4 µM.

For `Cc1ccc(-c2cc(C(=O)NCCN3CCCC3)c3cc(F)ccc3n2)cc1` [Compound 19], the “LLE (ligand-lipophilicity efficiency)” value in series [1] is 3.2.

In turn, `Cc1cc(Nc2cc(C(=O)NCCN3CCCC3)c3cc(F)ccc3n2)on1` [Compound 20] registered an EC50 at 68 h in series [3] greater than 50 µM.

Compound `O=C(NCCN1CCCC1)c1cc(N2CCn3ccnc3C2)nc2ccc(F)cc12` [Compound 22, 2-(5,6-Dihydroimidazo[1,2-a]pyrazine-7(8H)-yl)-6-fluoro-N-(2-(pyrrolidin-1-yl)ethyl)quinoline-4-carboxamide] registered an EC50 at 68 h in series [3] greater than 50 µM.

For the compound `O=C(NCCN1CCCC1)c1cc(N2CCC(N3CCOCC3)CC2)nc2ccc(Cl)cc12` [Compound 24, 6-Chloro-2-(4-morpholinopiperidin-1-yl)-N-(2-(pyrrolidin-1-yl)ethyl)quinoline-4-carboxamide], the “LLE (ligand-lipophilicity efficiency)” value in series [1] was found to be 4.2.

With `O=C(NCCN1CCCC1)c1cc(NCCN2CCOCC2)nc2ccc(F)cc12` [Compound 26, 6-Fluoro-2-((3-morpholinoethyl)amino)-N-(2-(pyrrolidin-1-yl)ethyl)quinoline-4-carboxamide], in series [4] (mouse liver microsomes), the “MLM Cli” value is reported as less than 0.5 mL/min/g.

Consider `O=C(NCCN1CCC(F)CC1)c1cc(NCCCN2CCOCC2)nc2ccc(F)cc12` [Compound 31], for which, in series [2], the EC50 is 40.9 µM.

Consider `O=C(NCCN1CCOCC1)c1cc(NCCCN2CCOCC2)nc2ccc(F)cc12` [Compound 32], for which, in series [2], the EC50 was greater than 50 µM.

Regarding `O=C(NCCN1CCC(F)(F)CC1)c1cc(NCCCN2CCOCC2)nc2ccc(F)cc12` [Compound 33], the EC50 in series [2] is greater than 50 µM.

Consider `O=C(NCCN1CCCC(F)(F)C1)c1cc(NCCCN2CCOCC2)nc2ccc(F)cc12` [Compound 34], for which the EC50 in series [2] was greater than 50 µM.

Take `O=C(NCCN1CCC(F)(F)C1)c1cc(NCCCN2CCOCC2)nc2ccc(F)cc12` [Compound 35]: in series [2], the EC50 was greater than 50 µM.

With `O=C(NCCN1CCCC1)c1cc(-c2cccc(CN3CCOCC3)c2)nc2ccc(F)cc12` [Compound 45], the EC50 in series [5] (setting [7]) is 10.4 µM.

`O=C(NCCN1CCOCC1)c1cc(-c2ccc(CN3CCOCC3)cc2)nc2ccc(F)cc12` [Compound 46] had a drop in potency in series [1] of 12 fold. In series [4] (mouse liver microsome), the “MLM Cli” value is given as less than 0.5 mL min^–1 g^–1.

`CN(CCN1CCCC1)C(=O)c1cc(-c2ccc(CN3CCOCC3)cc2)nc2ccc(F)cc12` [Compound 47, 6-Fluoro-N-methyl-2-(4-(morpholinomethyl)phenyl)-N-(2-(pyrrolidin-1-yl)ethyl)quinoline-4-carboxamide] yielded a drop in potency in series [1] of 87 fold. The “MLM Cli” value in series [4] (mouse liver microsome) is on record as less than 0.5 mL min^–1 g^–1.

`O=C(NCCNC1CC1)c1cc(-c2ccc(CN3CCOCC3)cc2)nc2ccc(F)cc12` [Compound 48, N-(2-(Cyclopropylamino)ethyl)-6-fluoro-2-(4-(morpholinomethyl)phenyl)quinoline-4-carboxamide]: the “MLM Cli” value in series [4] (mouse liver microsome) was determined as 2 mL min^–1 g^–1. Besides, the EC50 in series [5] (setting [7]) stood at 0.0024 µM.

Consider `O=C(NCCN1CCC1)c1cc(-c2ccc(CN3CCOCC3)cc2)nc2ccc(F)cc12` [Compound 49, N-(2-(Azetidin-1-yl)ethyl)-6-fluoro-2-(4-(morpholinomethyl)phenyl)quinoline-4-carboxamide], for which the cure in series [6] is 1/3. The “MLM Cli” value in series [4] (mouse liver microsome) amounted to 0.5 mL min^–1 g^–1.

For the compound `OC(c1cc(C(F)(F)F)nc2c(C(F)(F)F)cccc12)C1CCCCN1` (centres unmarked) [Mefloquine, reference compound], the EC50 in series [5] (3D7, quality control of the assay, read-out: potency range (drug control)) fell in the range of 0.03 to 0.06 µM.
